Experimental data reported in patent US20070281992A1, “COMBINATION OF GYRASE B INHIBITORS AND PROTEIN SYNTHESIS INHIBITORS AND USES THEREOF” (priority 2006, published 2007).
Like-named read-outs stand apart in the source and are kept apart here.

Legend:
Format in all cases: cell-based
[1] = tested on: Methicillin-Susceptible Staphylococcus aureus Isolates; experiment: MIC assay (NCCLS broth dilution), MSSA clinical isolates; conditions: for MIC: read-out: Minimal Inhibitory Concentration
Procedure, shortened: (§1)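 NCCLS broth dilution, Mueller Hinton II broth; 11 two-fold serial dilutions per agent. Combos novobiocin:tetracycline or novobiocin:minocycline fixed at 2.5:1. Drugs dissolved in water; vancomycin control.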

[2] = tested on: Vancomycin-intermediate Staphylococcus aureus Isolates; experiment: MIC assay (NCCLS broth dilution), VISA isolates; conditions: for MIC: read-out: Minimal Inhibitory Concentration
Procedure, shortened: as §1

[3] = tested on: Unconfirmed Vancomycin-intermediate Staphylococcus aureus Isolates; experiment: MIC assay (NCCLS broth dilution), unconfirmed VISA isolates; conditions: Staphylococcus aureus; for MIC: read-out: Minimal Inhibitory Concentration
Procedure, shortened: as §1

[4] = tested on: Unconfirmed Vancomycin-intermediate Staphylococcus epidermidis Isolates; experiment: MIC assay (NCCLS broth dilution), unconfirmed VISE isolates; conditions: Staphylococcus epidermidis; for MIC: read-out: Minimal Inhibitory Concentration
Procedure, shortened: as §1

[5] = tested on: Linezolid-Resistant Staphylococcus aureus Isolates; experiment: MIC assay (NCCLS broth dilution), LRSA isolates; conditions: for MIC: read-out: Minimal Inhibitory Concentration
Procedure, shortened: as §1

[6] = tested on: Enterococcus faecalis (ATCC 29212); experiment: MIC assay, quality control strain E. faecalis ATCC 29212; conditions: ATCC29212, E. faecalis ATCC 29212, repeat runs 22FEB06-09MAR06, combinations at 2.5:1, read-out: Minimal Inhibitory Concentration, quality control
Procedure, shortened: as §1

[7] = Staphylococcus aureus, 52 MSSA isolates, combinations at 2.5:1, given as NB/partner

Cc1onc(-c2ccccc2)c1C(=O)N[C@@H]1C(=O)N2[C@@H]1SC(C)(C)[C@@H]2C(=O)O [OX, oxacillin]
0.5 µg/mL: MIC ([1]; Staphylococcus aureus, MSSA isolate 1002, 24FEB06) | MIC ([1]; Staphylococcus aureus, MSSA isolate 1009, 24FEB06) | MIC ([1]; Staphylococcus aureus, MSSA isolate 1131, 24FEB06) | MIC ([1]; Staphylococcus aureus, MSSA isolate 1133, 24FEB06)
0.12 µg/mL: MIC ([1]; Staphylococcus aureus, MSSA isolate 133, 03MAR06) | MIC ([1]; Staphylococcus aureus, MSSA isolate 779, 22FEB06) | MIC ([1]; Staphylococcus aureus, MSSA isolate 785, 22FEB06) | MIC ([1]; Staphylococcus aureus, MSSA isolate 792, 03MAR06) | MIC ([1]; Staphylococcus aureus, MSSA isolate 995, 03MAR06) | MIC ([1]; Staphylococcus aureus, MSSA isolate 998, 03MAR06) | MIC ([1]; Staphylococcus aureus, MSSA isolate 1132, 03MAR06) | MIC ([1]; Staphylococcus aureus, MSSA isolate 1654, 03MAR06) | MIC ([1]; Staphylococcus aureus, MSSA isolate 1728, retest 09MAR06)
8 µg/mL: MIC [6]
4 µg/mL: MIC ([3]; Unconfirmed VISA isolate 2013, 03MAR06) | MIC ([3]; Unconfirmed VISA isolate 2016, 03MAR06) | MIC50 ([3]; 6 unconfirmed VISA isolates (vancomycin MIC 4 ug/ml), combinations at 2.5:1) | MIC ([4]; Unconfirmed VISE isolate 2025, 09MAR06)
> 32 µg/mL: MIC ([2]; Staphylococcus aureus, VISA isolate 2012, 03MAR06) | MIC ([2]; Staphylococcus aureus, VISA isolate 2018, 03MAR06) | MIC50 ([2]; Staphylococcus aureus, 2 VISA isolates, combinations at 2.5:1, given as NB/partner) | MIC ([3]; Unconfirmed VISA isolate 2014, 03MAR06) | MIC ([3]; Unconfirmed VISA isolate 2015, 03MAR06) | MIC ([3]; Unconfirmed VISA isolate 2019, 03MAR06) | MIC ([4]; Unconfirmed VISE isolate 2024, 09MAR06) | MIC ([5]; Staphylococcus aureus, LRSA isolate 1651, 24FEB06) | MIC ([5]; Staphylococcus aureus, LRSA isolate 1652, 24FEB06) | MIC ([5]; Staphylococcus aureus, LRSA isolate 1725, 24FEB06) | MIC50 ([5]; Staphylococcus aureus, 3 LRSA isolates, combinations at 2.5:1)
>32 µg/mL: MIC Range ([2]; 2 VISA isolates, combinations at 2.5:1, given as NB/partner) | MIC Range ([5]; 3 LRSA isolates, combinations at 2.5:1)
.12 to .5 µg/mL: MIC Range ([1]; 52 MSSA isolates, Mueller Hinton II Broth, combinations at 2.5:1, given as NB/partner)
32 µg/mL: MIC ([4]; Unconfirmed VISE isolate 2026, 03MAR06) | MIC50 ([4]; 3 unconfirmed VISE isolates, combinations at 2.5:1)
0.25 µg/mL: MIC ([1]; Staphylococcus aureus, MSSA isolate 134, 03MAR06) | MIC ([1]; Staphylococcus aureus, MSSA isolate 135, 03MAR06) | MIC ([1]; Staphylococcus aureus, MSSA isolate 753, 22FEB06) | MIC ([1]; Staphylococcus aureus, MSSA isolate 754, 22FEB06) | MIC ([1]; Staphylococcus aureus, MSSA isolate 754, 24FEB06) | MIC ([1]; Staphylococcus aureus, MSSA isolate 755, 22FEB06) | MIC ([1]; Staphylococcus aureus, MSSA isolate 756, 03MAR06) | MIC ([1]; Staphylococcus aureus, MSSA isolate 780, 03MAR06) | MIC ([1]; Staphylococcus aureus, MSSA isolate 781, 03MAR06) | MIC ([1]; Staphylococcus aureus, MSSA isolate 782, 22FEB06) | MIC ([1]; Staphylococcus aureus, MSSA isolate 783, 22FEB06) | MIC ([1]; Staphylococcus aureus, MSSA isolate 784, 22FEB06) | MIC ([1]; Staphylococcus aureus, MSSA isolate 786, 22FEB06) | MIC ([1]; Staphylococcus aureus, MSSA isolate 787, 22FEB06) | MIC ([1]; Staphylococcus aureus, MSSA isolate 788, 22FEB06) | MIC ([1]; Staphylococcus aureus, MSSA isolate 789, 24FEB06) | MIC ([1]; Staphylococcus aureus, MSSA isolate 790, 24FEB06) | MIC ([1]; Staphylococcus aureus, MSSA isolate 791, 24FEB06) | MIC ([1]; Staphylococcus aureus, MSSA isolate 793, 24FEB06) | MIC ([1]; Staphylococcus aureus, MSSA isolate 794, 24FEB06) | MIC ([1]; Staphylococcus aureus, MSSA isolate 994, 22FEB06) | MIC ([1]; Staphylococcus aureus, MSSA isolate 996, 22FEB06) | MIC ([1]; Staphylococcus aureus, MSSA isolate 997, 22FEB06) | MIC ([1]; Staphylococcus aureus, MSSA isolate 999, 22FEB06) | MIC ([1]; Staphylococcus aureus, MSSA isolate 1000, 24FEB06) | MIC ([1]; Staphylococcus aureus, MSSA isolate 1001, 24FEB06) | MIC ([1]; Staphylococcus aureus, MSSA isolate 1003, 03MAR06) | MIC ([1]; Staphylococcus aureus, MSSA isolate 1005, 24FEB06) | MIC ([1]; Staphylococcus aureus, MSSA isolate 1006, 24FEB06) | MIC ([1]; Staphylococcus aureus, MSSA isolate 1007, 24FEB06) | MIC ([1]; Staphylococcus aureus, MSSA isolate 1008, 24FEB06) | MIC ([1]; Staphylococcus aureus, MSSA isolate 1134, 24FEB06) | MIC ([1]; Staphylococcus aureus, MSSA isolate 1656, 03MAR06) | MIC ([1]; Staphylococcus aureus, MSSA isolate 1662, 03MAR06) | MIC ([1]; Staphylococcus aureus, MSSA isolate 1663, 03MAR06) | MIC ([1]; Staphylococcus aureus, MSSA isolate 1666, 03MAR06) | MIC ([1]; Staphylococcus aureus, MSSA isolate 1667, 03MAR06) | MIC ([1]; Staphylococcus aureus, MSSA isolate 1668, 03MAR06) | MIC ([1]; Staphylococcus aureus, MSSA isolate 1671, 03MAR06) | MIC ([1]; Staphylococcus aureus, MSSA isolate 1728, 03MAR06) | MIC50 [1, 7] | MIC90 [1, 7] | MIC ([3]; Unconfirmed VISA isolate 2017, 03MAR06)
